Reference: patent US20260000596A1, “SEMI-SYNTHETIC RHAMNOLIPIDS” (The Procter & Gamble Company, priority 2024, published 2026)
≈ marks a conversion by molar mass, not a printed value. Read-outs that look alike come from different tables or passages of the source.

Columns and labels:
Format in all cases: cell-based
[1] = tested on: Escherichia coli ATCC 8739; test: Minimal Kill Concentration Assay (MKCA), E. coli; conditions: 20-minute contact time; for MBC: Escherichia coli, ATCC8739, 20 min, read-out: E. coli MKC (ppm)
Experimental: (§1) The MKC assay is a 96 well plate method to determine the minimum concentration of a test material or composition needed to kill Gram-negative and Gram-positive bacteria (Escherichia coli ATCC 8739 and Staphylococcus aureus ATCC 6538, respectively). The bacterial suspensions are prepared from 10× freezer stocks with 15% glycerol. The freezer stocks are centrifuged at 13,000×g (Eppendorf Centrifuge […] No. 541705483) for 1 minute. The supernatant is removed, and the cell pellet is resuspended in 1 mL saline (Sodium chloride solution 0.9%, Cytiva REF: Z1376), and then transferred to 9 mL saline. The target cfu/ml is 10^8, which is confirmed via serial diluting and plating on TSA plates (Tryptic Soy Agar-Sigma-Aldrich Cat #22091). Then 50 μL (25 μL if low on test materials) of bacteria is added to each well of a 96 well 0.5 mL V-Bottom plate (Greiner bio-one REF: 786201) to make a bacteria plate, one separate plate for each bacterium. The dilutions of the test compounds are prepared in a separate 96 well plate. The test compounds are tested at six dilutions in duplicates or with no replication diluted across the entire plate. The test compounds are prepared in Dimethyl Sulfoxide (Sigma Aldrich GR ACS Cat. No: MX1458-6) or sterile water at 2× the intended test concentration, and then serially diluted in the appropriate vehicle 1:2 across the plate using a multichannel. 50 μL (25 μL if low on test materials) from the test compound plate is added to each well in the bacteria plate all at once using an Integra VIAFLOW 96 channel pipette (Model: VIAFLO 96) and the Integra 300 μL Head (Part No. 6103). With addition of the 2× compounds bacteria plate, the compounds are diluted to a 1× test concentration. The addition of the test compounds to the bacteria wells starts the 20-minute contact time. The plates are mixed well using a Mix-Mate (Eppendorf SE). After 20 minutes, 1 μL from each well of the bacteria plate is transferred to premade Tryptic Soy Agar (TSA) plates (OmniTray Cell Culture Treated w/Lid Sterile, Cat. No: 165218) for spot plating using the Integra VIAFLOW 96 with the Integra 12.5 μL head (Part No. 6101). Then 4 μL from each well of the bacteria/compound plate is transferred to another 96 well plate containing 36 μL of neutralizer broth Modified Letheen Broth (BD Difco Letheen Broth, Modified REF 263010). The contact time is stopped at 20 minutes once the compound plate is neutralized. The plates are mixed well using a Mix-Mate and then 1 μL of the neutralizer+sample mix is transferred to a TSA OmniTray plate using the Integra VIAFLOW and Integra 12.5 μL head. The TSA spot plates are then incubated overnight for 20 hours at 37° C. in an Incubator. This process is done for both bacteria species. After overnight incubation, the plates are removed from the incubator and the results recorded by observing which dilutions had bacterial kill/growth. The last dilution that had kill for both replicates is recorded as the MKC. A positive control of Benzalkonium chloride (Sigma Aldrich Cat. No.: 12060-5G) and vehicle controls are always included in the test.

[2] = tested on: Staphylococcus aureus ATCC 6538; test: Minimal Kill Concentration Assay (MKCA), S. aureus; conditions: 20-minute contact time; for minimal kill concentration (20-minute contact): Staphylococcus aureus, ATCC6538, 20 min, read-out: S. aureus MKC (ppm)
Experimental: as §1

[3] = tested on: Staphylococcus aureus ATCC #6538; test: Minimum Inhibitory Concentration (MIC) Assay with Minimum Biocidal Concentration (MBC); conditions: for MIC / MBC: Staphylococcus aureus, ATCC6538, 24 h; for MIC: read-out: S. aureus MIC (ppm); for S. aureus MIC (ppm) / S. aureus MBC (ppm): Table 1.5; for S. aureus MIC (ppm): >=50% inhibition, 24 hrs at 35° C.; for S. aureus MBC (ppm): no visible growth; for MBC: read-out: S. aureus MBC (ppm)
Experimental: The Minimum Inhibitory Concentration (MIC) Assay is a 96-well high throughput method that determines the minimum concentration of an active required to inhibit the growth of microorganisms. Organism preparation: Compounds were evaluated against the following microorganisms: Staphylococcus aureus ATCC #6538 (American Type Culture Collection, Manassas, Virginia, USA). To prepare bacteria solutions, bacteria were streaked on Tryptic Soy Agar (TSA) and incubated at 30-35° C. for 18-24 hrs. Confluent growth was transferred to saline (0.85% NaCl) and turbidometrically adjusted to a target concentration of 10^7-10^8 CFU/ml. This inoculum solution was further diluted 1:1000 in Tryptic Soy Broth (pH 7) for assay use. Assay: Two-fold serial dilutions were prepared in Dimethylsulfoxide (DMSO, Thermo Scientific Pierce DMSO, Sequencing Grade) or sterile water for each test sample. In a sterile 96-well plate, each dilution was further diluted in broth inoculum such that each well contained 5% dilution and 95% broth inoculum. Bacteria plates were incubated on an orbital shaker (Heidolph Titramax 1000 Vibrating Platform Shaker, 200-300 rpm) for 24±2 hrs at 35° C. After incubation, the optical density (OD) of each well was measured in a spectrophotometer (Victor Nivo Multimode Plate Reader) at 600 nm. […] To determine the Minimum Biocidal Concentration (MBC), 2 ul from each well was pipetted onto neutralizing agar (Modified Letheen Agar with Tween) and incubated for 24 hrs at 30-35° C. The MBC was determined as the most dilute concentration with no visible growth.

[4] = Table 4, derivatized rhamnolipids, solvent DMSO

SMILES	MBC [1, 4] [µg/mL]	minimal kill concentration (20-minute contact) [2, 4] [µg/mL]	MBC ([3]; Table 5, solvent DMSO) [µg/mL]	MIC ([3]; Table 5, solvent DMSO) [µg/mL]	other results
CCCCCCCC(O)CC(=O)O (racemic) [(±)-3-Hydroxydecanoic acid, reference compound]					MBC ([1]; Table 1.4b, solvent water): 753 µg/mL (≈ 4 mM); minimal kill concentration (20-minute contact) ([2]; Table 1.4b, solvent water): 753 µg/mL; MIC [3]: 1130 µg/mL (≈ 6 mM)
CCCCCC(O)CC(=O)O (racemic) [(±)-3-Hydroxyoctanoic acid, reference compound]					MBC ([1]; Table 1.4b, solvent water): > 641 µg/mL; minimal kill concentration (20-minute contact) ([2]; Table 1.4b, solvent water): > 641 µg/mL
CCCCCCCCCC(O)CC(=O)O (racemic) [DL-β-Hydroxylauric acid, reference compound]					E. coli MKC (ppm) ([1]; Table 1.4b, solvent water): >865 ppm; S. aureus MKC (ppm) ([2]; Table 1.4b, solvent water): >865 ppm; S. aureus MIC (ppm) ([3]; solvent DMSO): 325 ppm; S. aureus MBC (ppm) ([3]; solvent DMSO): 650 ppm
CCCCCCCCCCCC(O)CC(=O)O (racemic) [DL-β-Hydroxymyristic acid, reference compound]					E. coli MKC (ppm) ([1]; Table 1.4b, solvent DMSO): 122 ppm; S. aureus MKC (ppm) ([2]; Table 1.4b, solvent DMSO): 244 ppm; S. aureus MIC (ppm) ([3]; solvent DMSO): 365 ppm; S. aureus MBC (ppm) ([3]; solvent DMSO): 731 ppm
CCCCCCCCCCCCCC(O)CC(=O)O (racemic) [DL-β-Hydroxypalmitic acid, reference compound]					E. coli MKC (ppm) ([1]; Table 1.4b, solvent DMSO): 136 ppm; S. aureus MKC (ppm) ([2]; Table 1.4b, solvent DMSO): >1090 ppm; S. aureus MIC (ppm) ([3]; solvent DMSO): 102 ppm; S. aureus MBC (ppm) ([3]; solvent DMSO): 204 ppm
CCCCCCCC(CC(=O)NC)O[C@@H]1O[C@@H](C)[C@H](O)[C@@H](O)[C@H]1O[C@H]1O[C@@H](C)[C@@H](O)[C@H](O)[C@@H]1O (stereo partly drawn) [3-(((2R,3R,4R,5R,6S)-4,5-dihydroxy-6-methyl-3-(((2R,3S,4S,5S,6S)-3,4,5-trihydroxy-6-methyltetrahydro-2H-pyran-2-yl)oxy)tetrahydro-2H-pyran-2-yl)oxy)-N-methyldecanamide]	> 4940	> 4940	> 1970	> 1970	
CCCCCCCC(CC(=O)NCC(CC)CCCC)O[C@@H]1O[C@@H](C)[C@H](O)[C@@H](O)[C@H]1O[C@@H]1O[C@@H](C)[C@H](O)[C@@H](O)[C@H]1O (stereo partly drawn) [3-(((2R,3R,4R,5R,6S)-4,5-dihydroxy-6-methyl-3-(((2S,3R,4R,5R,6S)-3,4,5-trihydroxy-6-methyltetrahydro-2H-pyran-2-yl)oxy)tetrahydro-2H-pyran-2-yl)oxy)-N-(2-ethylhexyl)decanamide]	> 5920	2960	592 (≈ 1 mM)	296 (≈ 0.5 mM)	
CCCCCCCC(CC(=O)NCCO)O[C@@H]1O[C@@H](C)[C@H](O)[C@@H](O)[C@H]1O[C@@H]1O[C@@H](C)[C@H](O)[C@@H](O)[C@H]1O (stereo partly drawn) [3-(((2R,3R,4R,5R,6S)-4,5-dihydroxy-6-methyl-3-(((2S,3R,4R,5R,6S)-3,4,5-trihydroxy-6-methyltetrahydro-2H-pyran-2-yl)oxy)tetrahydro-2H-pyran-2-yl)oxy)-N-(2-hydroxyethyl)decanamide]	> 5240	> 5240	> 2090	> 2090	
CCCCCCCC(CC(=O)N(C)OC)O[C@@H]1O[C@@H](C)[C@H](O)[C@@H](O)[C@H]1O[C@@H]1O[C@@H](C)[C@H](O)[C@@H](O)[C@H]1O (stereo partly drawn) [3-(((2R,3R,4R,5R,6S)-4,5-dihydroxy-6-methyl-3-(((2S,3R,4R,5R,6S)-3,4,5-trihydroxy-6-methyltetrahydro-2H-pyran-2-yl)oxy)tetrahydro-2H-pyran-2-yl)oxy)-N-methoxy-N-methyldecanamide]	> 5240	> 5240	> 2090	2090 (≈ 4 mM)	
CCCCCCCC(CC(=O)N(C)C)O[C@@H]1O[C@@H](C)[C@H](O)[C@@H](O)[C@H]1O[C@@H]1O[C@H](C)C(O)[C@@H](O)[C@H]1O (stereo partly drawn) [3-(((2R,3R,4R,5R,6S)-4,5-dihydroxy-6-methyl-3-(((2S,3R,4R,6R)-3,4,5-trihydroxy-6-methyltetrahydro-2H-pyran-2-yl)oxy)tetrahydro-2H-pyran-2-yl)oxy)-N,N-dimethyldecanamide]	> 5070	> 5070	> 508	> 508	
CCCCCCCC(CC(=O)O)O[C@@H]1O[C@@H](C)[C@H](O)[C@@H](O)[C@H]1O[C@@H]1O[C@H](C)C(O)[C@@H](O)[C@H]1O (stereo partly drawn) [3-(((2R,3R,4R,5R,6S)-4,5-dihydroxy-6-methyl-3-(((2S,3R,4R,6R)-3,4,5-trihydroxy-6-methyltetrahydro-2H-pyran-2-yl)oxy)tetrahydro-2H-pyran-2-yl)oxy)decanoic acid]	> 4810	> 4810	> 1920	> 1920	
CCCCCCCCC[C@@H](O)CC(=O)O [(3R)-3-hydroxydodecanoic acid, reference compound]					MBC ([1]; Table 1.4b, solvent water): > 865 µg/mL; minimal kill concentration (20-minute contact) ([2]; Table 1.4b, solvent water): 865 µg/mL
CCCCCCCC(CC(=O)N(CCCC)CCCC)O[C@@H]1O[C@@H](C)[C@H](O)[C@@H](O)[C@H]1O[C@@H]1O[C@@H](C)[C@H](O)[C@@H](O)[C@H]1O (stereo partly drawn) [N,N-dibutyl-3-(((2R,3R,4R,5R,6S)-4,5-dihydroxy-6-methyl-3-(((2S,3R,4R,5R,6S)-3,4,5-trihydroxy-6-methyltetrahydro-2H-pyran-2-yl)oxy)tetrahydro-2H-pyran-2-yl)oxy)decanamide]	5920 (≈ 10 mM)	2960	296 (≈ 0.5 mM)	296 (≈ 0.5 mM)	
CCCCCCCC(CC(=O)NCCO[Si](C)(C)C(C)(C)C)O[C@@H]1O[C@@H](C)[C@H](O)[C@@H](O)[C@H]1O[C@@H]1O[C@@H](C)[C@H](O)[C@@H](O)[C@H]1O (stereo partly drawn) [N-(2-((tert-butyldimethylsilyl)oxy)ethyl)-3-(((2R,3R,4R,5R,6S)-4,5-dihydroxy-6-methyl-3-(((2S,3R,4R,5R,6S)-3,4,5-trihydroxy-6-methyltetrahydro-2H-pyran-2-yl)oxy)tetrahydro-2H-pyran-2-yl)oxy)decanamide]	> 6370	> 6370	637 (≈ 0.999 mM)	319 (≈ 0.5 mM)	
CCCCCCCC(CC(=O)NC1CCCCC1)O[C@@H]1O[C@@H](C)[C@H](O)[C@@H](O)[C@H]1O[C@@H]1O[C@@H](C)[C@H](O)[C@@H](O)[C@H]1O (stereo partly drawn) [N-cyclohexyl-3-(((2R,3R,4R,5R,6S)-4,5-dihydroxy-6-methyl-3-(((2S,3R,4R,5R,6S)-3,4,5-trihydroxy-6-methyltetrahydro-2H-pyran-2-yl)oxy)tetrahydro-2H-pyran-2-yl)oxy)decanamide]	> 5620	> 5620	> 2250	> 2250	
